We go through 13 molecules from patent US6645504B1, “Bystander suppression of type I diabetes by oral administration of glucagon” (AutoImmune Inc., priority 1987, dated 2003).

The test system of one assay is insulitis. In words: Suppression of insulitis in NOD mice by oral administration. The format is in vivo. Particulars: fed orally; for Insulitis Score: amount (mg) per Table 5, sacrificed at ten weeks of age. As for the experimental part:
NOD mice (Taconic Labs) were fed one mg of glucagon, or one mg of porcine insulin (both commercially purchased) or equal molar amounts of insulin A-chain, B-chain and B-chain peptides described below (all insulin fragments having been synthesized) twice weekly for five weeks and sacrificed at ten weeks of age.
Control animals were fed a non-pancreatic (i.e., unrelated) peptide, GAP. Insulitis was measured as a semiquantitative insulitis score according to the method described in Zhang, Z. J., PNAS(USA), 88:10252-10256, 1991.
The insulin B-chain peptides corresponded to amino acid residues 1-12 (B1-12), 10-22 (B10-22), 11-30 (B11-30) and 23-30 (B23-30). All animals were fed 10 times over three weeks.

The subject of the next assay is OVA (responder) line. The assay can be described thus: Transwell triggering of suppression by MBP peptides. The format is cell-based, rats. The settings on record: peptide added to modulator well with spleen cells of MBP-fed animals; FIG. 11. The text has this:
Transwell Cultures. A dual chamber transwell culture system (Costar, Cambridge, Mass.), which is 24.5 mm in diameter and consists of two compartments separated by a semi-permeable polycarbonate membrane, with a pore size of 0.4 μm, was used. The two chambers are 1 mm apart, allowing cells to be coin-cubated in close proximity without direct cell-to-cell contact. To measure in vitro suppression of proliferative responses in transwell cultures, 5×10^4 MBP- or OVA-specific line cells, raised and maintained as previously described (Ben-Nun, A. et al., Eur. J. Immunol. 11:195, 1981), were cultured with 10^6 irradiated (2,500 rad) thymocytes, in 600 μl of proliferation media in the lower well. Spleen cells from orally tolerized rats or controls (fed BSA) were added to the upper well (5×10^5 cells in 200 μl). Spleen cells were removed 7-14 days after the last feeding, and a single cell suspension was prepared by pressing the spleens through a stainless steel mesh. MBP and OVA (50 μg/ml) were added in a volume of 20 μl. […] In some experiments, modulator cells were added in the lower well together with responder cells, and in these instances modulator cells were irradiated (1,250 rad) immediately before being placed in culture. Proliferation media consisted of RPMI 1640 (Gibco Laboratories, Grand Island, N.Y.) supplemented with […] 2-mercaptoethanol, 1% sodium pyruvate, 1% penicillin and streptomycin, 1% glutamine, 1% HEPES buffer, 1% nonessential amino acids, and 1% autologous serum. Each transwell was performed in quadruplicate. The transwells were incubated at 37° C. in a humidified 6% CO2 and 94% air atmosphere for 72 hours. After 54 hours of culture, each lower well was pulsed with 4 μCi of [^3H]thymidine and at 72 hours split and reseeded to three wells in a round-bottomed 96-well plate (Costar) for harvesting onto fiberglass filters and counting using standard liquid scintillation techniques. Percent suppression =100×(1−Δ A cpm responders cultured with modulators/Δ cpm of responders).
The Transwell System of Example 2 above was used to identify the epitopes present on guinea pig MBP which induce the release of TGF-β from suppressor T-cells.
Peptides corresponding to guinea pig MBP residue nos.

The subject of assay [1] is EAE. In words: EAE induced by guinea pig MBP 71-90, feeding of MBP peptides. The class given is in vivo, Lewis rats. The settings on record: fed; FIG. 14. On the procedure:
The effects of feeding various peptides to Lewis rats induced for EAE by guinea pig MBP residue nos. 71-90 (the major immunodominant epitope of guinea pig MBP as shown in Example 3 above) were also studied.
EAE was induced by immunizing with 0.25 mg of guinea pig MBP amino acid residue nos 71-90 in Complete Freund's Adjuvant and the effect of feeding various guinea pig MBP peptides on EAE was examined.

The test system of a further assay is DTH responses. In words: DTH responses in animals fed MBP or MBP peptides. The class given is in vivo, Lewis rats. The settings on record: FIG. 15. From the text:
Guinea pig MBP peptide 131-150 was ineffective in this case. Peptides were also fed with STI which prevents their breakdown by gastric juices and enhances their biological effect. DTH responses to whole MBP were suppressed by feeding MBP or any one of the MBP-peptides 21-40, or 71-90.

For assay [2], the system named is EAE. The assay can be described thus: I.V. tolerization with MBP and MBP peptides in EAE induced with whole guinea pig MBP. The settings on record: days 8 and 9 post immunization, FIG. 16. The class given is in vivo, SJL/J mice. The text has this: FIG. 16 is a bar graph showing the effect of intravenous tolerization with MBP and disease inducing and non-inducing fragments thereof on induced EAE expression in SJL/J mice.
Finally, the suppression of EAE by I.V. tolerization with MBP and MBP peptides prior to disease expression (on days 8 and 9 post immunization) was examined.

In assay [3] the test system is EAE. In words: EAE induced with PLP peptide 140-160, oral vs. I.V. administration. The format is in vivo, SJL/J mice. The settings on record: 0.25 mg every other day. On the procedure:
2. Fed Mouse MBP (0.25 mg)
3. Fed Bovine PLP (0.25 mg)
4. Inject I.V. Histone (0.25 mg)
5. Inject I.V. MBP (0.25 mg)
6. Inject I.V. PLP (0.25 mg)
Each group was treated every other day for 7 days. In the intravenous group, the material was injected into the eye plexus. The PLP peptide used was the disease inducing fragment 140-160 of bovine PLP. This peptide has the amino acid sequence H2N-[…]-CO2H (SEQ. ID NO: 13), representing the foregoing amino acid residues.

Where no end group is shown, it is not given here.

On to A-Chain: insulin A-chain, synthesized, for which, in the assay on insulitis, the “suppression of insulitis (in words)” value is given as “suppressed insulitis” and the “Insulitis Score” value amounted to 1.88.
As for “B1-12: insulin B-chain peptide, amino acid residues 1-12 (FVNQHLCGSHLV; ends and bridges not checked; UniProt P01308 25-36, looked up, fragment)”, in the assay with insulitis, the “suppression of insulitis (in words)” value is “suppressed insulitis” and the “Insulitis Score” value was 1.76.
The corresponding values for “B10-22: insulin B-chain peptide, amino acid residues 10-22 (HLVEALYLVCGER; ends and bridges not checked; UniProt P01308 34-46, looked up, fragment)” are “suppressed insulitis” and 1.71.
For “B11-30: insulin B-chain peptide, amino acid residues 11-30 (LVEALYLVCGERGFFYTPKT; ends and bridges not checked; UniProt P01308 35-54, looked up, fragment)”, in that order: “suppressed insulitis” and 1.44.
The corresponding values for “B23-30: insulin B-chain peptide, amino acid residues 23-30 (GFFYTPKT; Insulin B chain; UniProt P01308 47-54, looked up, fragment)” are “did not” and 2.22.
As for B-Chain: insulin B-chain, synthesized, in the assay on insulitis, the “suppression of insulitis (in words)” value is given as “suppressed insulitis” and the “Insulitis Score” value is 1.32.
The corresponding values for glucagon [reference compound] are “effective in suppressing insulitis” and 1.81.
On to “guinea pig MBP 21-40: peptide corresponding to guinea pig MBP amino acid residues 21-40 (MDHARHGFLPRHRDTGILDS; UniProt P25188 21-40, looked up, fragment)”, for which, in the assay on OVA (responder) line, the “triggering suppression of proliferation in the transwell system” value is “capable of triggering suppression of proliferation”. Also, the “down-regulation of EAE induced by guinea pig MBP 71-90” value in the assay with EAE [1] was “equally effective in down-regulating EAE”. In addition, in the assay on DTH responses, the “DTH responses to guinea pig MBP peptide 71-90” value was “not affected” and the “DTH responses to whole MBP” value was “suppressed”. For the same molecule, the “suppression of EAE induced with whole guinea pig MBP” value with EAE [2] was “ineffective in suppressing EAE”.
For the molecule “guinea pig MBP 51-70: peptide corresponding to guinea pig MBP amino acid residues 51-70 (APKRGSGKDSHHAARTTHYG; UniProt P25188 51-70, looked up, fragment)”, in the assay on OVA (responder) line, the “triggering suppression of proliferation in the transwell system” value is “capable of triggering suppression of proliferation”.
On the same count and under the same terms, in the case of “guinea pig MBP 101-120: peptide corresponding to guinea pig MBP amino acid residues 101-120 (SQGKGRGLSLSRFSWGAEGQ; UniProt P25188 101-120, looked up, fragment)” it was “capable of triggering suppression of proliferation”.
Take “guinea pig MBP 131-150: Guinea pig MBP peptide 131-150 (DYKSKGFKGAHDAQGTLSKI; UniProt P25188 131-150, looked up, fragment)”: in the assay on EAE [1], the “down-regulation of EAE induced by guinea pig MBP 71-90” value is recorded as “ineffective”. For the same molecule, in the assay on EAE [2], the “suppression of EAE induced with whole guinea pig MBP” value is listed as “ineffective in suppressing EAE”.

B1: bovine PLP: Bovine proteolipid protein (protein, listed as Bos taurus)
chain: GLLECCARCLVGAPFASLVATGLCFFGVALFCGCGHEALTGTEKLIETYFSKNYQDYEYLINVIHAFQYVIYGTASFFFLYGALLLAYGFYTTGAVRQIFGDYKTTICGKGLSATVTGGQKGRGSRGQHQAHSLERVCHCLGKWLGHPDKFVGITYALTVVWLLVFACSAVPVYIYFNTWTTCQSIAAPSKTSASIGTLCADARMYGVLPWNAFPGKVCGSNLLSICKTAEFQMTFHLFIAAFVGAAATLVSLVTFMIAATYNFAVLKLMGRGTKF
On to B1, for which the “suppression of PLP-peptide-induced EAE” value is recorded as “effective in suppressing EAE” in the assay on EAE [3] (administered intravenously, FIG. 13) and “equally effective in down-regulating PLP-peptide-induced EAE” in the assay with EAE [3] (orally administered, FIG. 12).

B2: mouse MBP: Mouse myelin basic protein (protein, UniProt P04370 1-250, looked up)
Myelin basic protein: MGNHSGKRELSAEKASKDGEIHRGEAGKKRSVGKLSQTASEDSDVFGEADAIQNNGTSAEDTAVTDSKHTADPKNNWQGAHPADPGNRPHLIRLFSRDAPGREDNTFKDRPSESDELQTIQEDPTAASGGLDVMASQKRPSQRSKYLATASTMDHARHGFLPRHRDTGILDSIGRFFSGDRGAPKRGSGKDSHTRTTHYGSLPQKSQHGRTQDENPVVHFFKNIVTPRTPPPSQGKGGRDSRSGSPMARR
In the case of B2, in the assay with EAE [3] (orally administered, FIG. 12), the “suppression of PLP-peptide-induced EAE” value is on record as “equally effective in down-regulating PLP-peptide-induced EAE”.
